Data as given in PMC9855884, “Glycosylated Lipopeptides—Synthesis and Evaluation of Antimicrobial Activity and Cytotoxicity” (Biomolecules, 2023).
Values after ≈ are worked out from the molar mass of the structure shown. Where a SMILES comes first, the peptide text is derived from it. The star is where a group is joined. βGlcNAc = CC(=O)N[C@@H]1[C@@H](O)[C@H](O)[C@@H](CO)O[C@H]1*; Stearoyl = CCCCCCCCCCCCCCCCCC(=O)*; Palmitoyl = CCCCCCCCCCCCCCCC(=O)*; Myristoyl = CCCCCCCCCCCCCC(=O)*

Tests used:
[1] = tested on: K. aerogenes ATCC 13048; type: cell-based, Klebsiella aerogenes; conditions: ATCC 13048, 18 h
Method: (§1) The Acinetobacter baumannii ATCC BAA-1605, Enterococcus faecium ATCC 700221, Klebsiella aerogenes ATCC 13048, Klebsiella pneumoniae ATCC 700603, Pseudomonas aeruginosa ATCC 9027, Staphylococcus aureus ATCC 33591, Candida glabrata ATCC 15126, strains were acquired from the American Type Culture Collection (ATCC). All the strains were stored at −80 °C in Roti-Store cryo vials and were transferred into fresh Mueller–Hinton broth (MHB, Becton Dickinson, Warsaw, Poland) for bacteria or RPMI-1640 (Sigma-Aldrich, Steinheim, Germany) for fungi before the tests and incubated for 24 h at 37 °C. Then, the cultures were seeded on the Mueller–Hinton agar (BioMaxima, Lublin, Poland) or Sabouraud dextrose agar (SDA, BioMaxima, Lublin, Poland) plates, respectively, and incubated as just mentioned. These agar cultures were used for further microbiological assays. Cell densities for all assays were adjusted spectrophotometrically (Multiskan GO Microplate Spectrophotometer, Thermo Fisher Scientific, Vantaa, Finland) at 600 and 530 nm for bacteria and fungi, respectively.
(§2) The MICs were determined using a broth microdilution method according to the Clinical and Laboratory Standard Institute guidelines. For this purpose, initial inoculums of bacteria (5 × 10^5 CFU/mL) in MHB and yeasts (2 × 10^3 CFU/mL) in RPMI-1640 with 2% D-glucose were exposed to the ranging concentration of lipopeptides (1–512 μg/mL) and incubated at 37 °C for 18 h and 24 h, respectively. The experiments were conducted on 96-well microtiter polystyrene plates (Kartell, Italy). The growth was assessed visually after incubation and the MIC was assumed as the lowest peptide concentration at which a noticeable growth of microorganisms was inhibited. All experiments were conducted in triplicate.

[2] = tested on: A. baumannii ATCC BAA 1605; type: cell-based, Acinetobacter baumannii; conditions: ATCC BAA 1605, 18 h
Method: as §1, §2

[3] = tested on: E. faecium ATCC 700221; type: cell-based, Enterococcus faecium; conditions: ATCC 700221, 18 h
Method: as §1, §2

[4] = Determination of peptide hydrophobicity with RP-HPLC (adjusted retention time); type: physicochemical; conditions: RP-HPLC as measure of hydrophobicity; Waters X-Bridge Shield RP-18 3.0 × 100 mm, 3.5 μm; linear 20–80% acetonitrile in water over 30 min, 0.1% TFA; 0.5 mL/min; 25.0 °C; peptide 1 g/L in water (0.1% TFA); UV 214 nm; triplicate
Method: To determine peptide hydrophobicity, a Waters Alliance e2695 system with a Waters 2998 PDA Detector was used. All analyses were carried out on a Waters X-Bridge Shield RP-18 column (3.0 × 100 mm, 3.5 μm particle size, 130 Å pore size). The peptides were dissolved in water (0.1% TFA, v/v) up to a concentration of 1 g/L. UV detection at 214 nm was used, and samples (10 μL) were eluted with a linear 20–80% acetonitrile gradient in deionized water over 30 min at 25.0 ± 0.1 °C. The mobile phase flow rate was 0.5 mL/min. Both eluents contained 0.1% (v/v) of TFA. Each peptide sample was analyzed in triplicate. Maximum standard deviation and coefficient of variation were 0.046 and 0.23%, respectively.
After synthesis and purification, all the products were analyzed with MS and HPLC to confirm purity and identity of the compounds. […] The chromatographic analyses were performed with RP-HPLC; retention time refers to hydrophobicity of the lipopeptide.

[5] = tested on: P. aeruginosa ATCC 9027; type: cell-based, Pseudomonas aeruginosa; conditions: ATCC 9027, 18 h
Method: as §1, §2

[6] = tested on: C. glabrata ATCC 15126; type: cell-based, Candida glabrata; conditions: ATCC 15126, 24 h
Method: as §1, §2

[7] = tested on: S. aureus ATCC 33591; type: cell-based, Staphylococcus aureus; conditions: ATCC 33591, 18 h
Method: as §1, §2

[8] = tested on: human red blood cells (RBCs); assay: Hemolysis assay; type: cell-based; conditions: human RBCs 4% (v/v) in PBS, 60 min, 37 °C, absorbance 540 nm, 1–512 µg/mL; triplicate
Method: The hemolysis assay was conducted using a procedure described previously. For this purpose, fresh human red blood cells (RBCs) with EDTA anticoagulant were washed three times with phosphate-buffer saline (PBS) using centrifugation at 800× g for 10 min and resuspended in PBS. Then, the stock solution of RBCs was added to serial dilution of peptides on 96-well polystyrene plates to reach a final volume of 100 µL with 4% concentration of erythrocytes (v/v) over the concentration range of 1–512 µg/mL of the tested compounds. The control wells for the 0% and 100% hemolysis consisted of RBCs suspended in PBS and 1% of Triton X–100, respectively. Subsequently, the plates were incubated for 60 min at 37 °C and then centrifuged at 800× g for 10 min at 4 °C (Sorvall ST 16R Centrifuge, Thermo Scientific, Osterode am Harz, Germany). After centrifugation, the supernatant was carefully […] to new microtiter plates and the release of hemoglobin was monitored through absorbance measurements at 540 nm (Multiskan™ GO Microplate Spectrophotometer, Thermo Scientific). All experiments were conducted in triplicate.
The lipopeptides were tested against human erythrocytes in order to evaluate their hemolytic activity. Moreover, selectivity indexes (SI) were calculated by dividing the HC50 by MIC. […] In some cases, glycosylation led to suppressed toxicity, e.g., a comparison of C14 peptides analogs: 1–3 and 10–12. On the other hand, an increase in toxicity of C18 analogs (7–9 vs. 16–18) was found for glycosylated USCLs. For this reason, SI was calculated to provide a correlation between antimicrobial activity and toxicity. […] Among gUSCLs: 10 and 11 with C14 fatty acid and 16–18 should be highlighted owing to their high selectivity against E. fecium and C. glabrata.

SMILES	MIC [1] [µg/mL]	MIC [2] [µg/mL]	MIC [3] [µg/mL]	Adjusted Retention Time [4] [min]	MIC [5] [µg/mL]	MIC [6] [µg/mL]	MIC [7] [µg/mL]	HC50 (hemolytic activity) [8] [µg/mL]
CCCCCCCCCCCCCCCCCC(=O)N[C@@H](CCCNC(=N)N)C(=O)N[C@@H](CCCNC(=N)N)C(=O)N[C@@H](CO)C(N)=O [Peptide 9, C18-RRS-NH2] (Stearoyl-Arg-Arg-Ser-NH2)	32 (≈ 46.9 µM)	32 (≈ 46.9 µM)	8 (≈ 11.7 µM)	24.04	64 (≈ 93.7 µM)	4 (≈ 5.86 µM)	8 (≈ 11.7 µM)	94.31 ± 2.64
CCCCCCCCCCCCCC(=O)N[C@@H](CO[C@@H]1O[C@H](CO)[C@@H](O)[C@H](O)[C@H]1NC(C)=O)C(=O)N[C@@H](CCCNC(=N)N)C(=O)N[C@@H](CCCNC(=N)N)C(N)=O [Peptide 10, C14-S(GlcNAc)RR-NH2] (Myristoyl-Ser(βGlcNAc)-Arg-Arg-NH2)	>512	128 (≈ 154 µM)	32 (≈ 38.6 µM)	14.47	256 (≈ 308 µM)	256 (≈ 308 µM)	64 (≈ 77.1 µM)	>512
CCCCCCCCCCCCCC(=O)N[C@@H](CCCNC(=N)N)C(=O)N[C@@H](CO[C@@H]1O[C@H](CO)[C@@H](O)[C@H](O)[C@H]1NC(C)=O)C(=O)N[C@@H](CCCNC(=N)N)C(N)=O [Peptide 11, C14-RS(GlcNAc)R-NH2] (Myristoyl-Arg-Ser(βGlcNAc)-Arg-NH2)	>512	64 (≈ 77.1 µM)	32 (≈ 38.6 µM)	14.82	128 (≈ 154 µM)	128 (≈ 154 µM)	64 (≈ 77.1 µM)	364.17 ± 105.10
CCCCCCCCCCCCCC(=O)N[C@@H](CCCNC(=N)N)C(=O)N[C@@H](CCCNC(=N)N)C(=O)N[C@@H](CO[C@@H]1O[C@H](CO)[C@@H](O)[C@H](O)[C@H]1NC(C)=O)C(N)=O [Peptide 12, C14-RRS(GlcNAc)-NH2] (Myristoyl-Arg-Arg-Ser(βGlcNAc)-NH2)	>512	64 (≈ 77.1 µM)	16 (≈ 19.3 µM)	15.01	256 (≈ 308 µM)	128 (≈ 154 µM)	32 (≈ 38.6 µM)	345.72 ± 51.94
CCCCCCCCCCCCCCCC(=O)N[C@@H](CO[C@@H]1O[C@H](CO)[C@@H](O)[C@H](O)[C@H]1NC(C)=O)C(=O)N[C@@H](CCCNC(=N)N)C(=O)N[C@@H](CCCNC(=N)N)C(N)=O [Peptide 13, C16-S(GlcNAc)RR-NH2] (Palmitoyl-Ser(βGlcNAc)-Arg-Arg-NH2)	512 (≈ 597 µM)	32 (≈ 37.3 µM)	16 (≈ 18.6 µM)	18.26	32 (≈ 37.3 µM)	32 (≈ 37.3 µM)	16 (≈ 18.6 µM)	95.39 ± 2.40
CCCCCCCCCCCCCCCC(=O)N[C@@H](CCCNC(=N)N)C(=O)N[C@@H](CO[C@@H]1O[C@H](CO)[C@@H](O)[C@H](O)[C@H]1NC(C)=O)C(=O)N[C@@H](CCCNC(=N)N)C(N)=O [Peptide 14, C16-RS(GlcNAc)R-NH2] (Palmitoyl-Arg-Ser(βGlcNAc)-Arg-NH2)	64 (≈ 74.6 µM)	32 (≈ 37.3 µM)	16 (≈ 18.6 µM)	18.63	32 (≈ 37.3 µM)	16 (≈ 18.6 µM)	16 (≈ 18.6 µM)	73.34 ± 1.63
CCCCCCCCCCCCCCCC(=O)N[C@@H](CCCNC(=N)N)C(=O)N[C@@H](CCCNC(=N)N)C(=O)N[C@@H](CO[C@@H]1O[C@H](CO)[C@@H](O)[C@H](O)[C@H]1NC(C)=O)C(N)=O [Peptide 15, C16-RRS(GlcNAc)-NH2] (Palmitoyl-Arg-Arg-Ser(βGlcNAc)-NH2)	256 (≈ 298 µM)	32 (≈ 37.3 µM)	8 (≈ 9.32 µM)	18.80	64 (≈ 74.6 µM)	16 (≈ 18.6 µM)	16 (≈ 18.6 µM)	111.45 ± 11.65
CCCCCCCCCCCCCCCCCC(=O)N[C@@H](CO[C@@H]1O[C@H](CO)[C@@H](O)[C@H](O)[C@H]1NC(C)=O)C(=O)N[C@@H](CCCNC(=N)N)C(=O)N[C@@H](CCCNC(=N)N)C(N)=O [Peptide 16, C18-S(GlcNAc)RR-NH2] (Stearoyl-Ser(βGlcNAc)-Arg-Arg-NH2)	32 (≈ 36.1 µM)	16 (≈ 18.1 µM)	16 (≈ 18.1 µM)	22.12	32 (≈ 36.1 µM)	4 (≈ 4.51 µM)	16 (≈ 18.1 µM)	77.45 ± 1.13
CCCCCCCCCCCCCCCCCC(=O)N[C@@H](CCCNC(=N)N)C(=O)N[C@@H](CO[C@@H]1O[C@H](CO)[C@@H](O)[C@H](O)[C@H]1NC(C)=O)C(=O)N[C@@H](CCCNC(=N)N)C(N)=O [Peptide 17, C18-RS(GlcNAc)R-NH2] (Stearoyl-Arg-Ser(βGlcNAc)-Arg-NH2)	32 (≈ 36.1 µM)	16 (≈ 18.1 µM)	8 (≈ 9.03 µM)	22.50	32 (≈ 36.1 µM)	4 (≈ 4.51 µM)	16 (≈ 18.1 µM)	45.25 ± 0.59
